Experiments:
[1] = Inhibition of Protein phosphatase 1; parameters: species or system Homo sapiens
[2] = Inhibition of Protein phosphatase 2A; parameters: species or system Homo sapiens
[3] = test system: HT-29; experiment: Cytotoxicity against human HT29 cells at 100 uM; format: functional
[4] = test system: SW480; experiment: Cytotoxicity against human SW480 cells at 100 uM; format: functional
[5] = test system: MCF7; experiment: Cytotoxicity against human MCF7 cells at 100 uM; format: functional
[6] = test system: A2780; experiment: Cytotoxicity against human A2780 cells at 100 uM; format: functional
[7] = test system: NCI-H460; experiment: Cytotoxicity against human H460 cells at 100 uM; format: functional
[8] = test system: A-431; experiment: Cytotoxicity against human A431 cells at 100 uM; format: functional
[9] = test system: DU-145; experiment: Cytotoxicity against human DU145 cells at 100 uM; format: functional
[10] = Cytotoxicity against human BE2-C cells at 100 uM; format: functional; conditions: BE(2)-C
[11] = Cytotoxicity against human SJ-G2 cells at 100 uM; format: functional
[12] = test system: HT-29; experiment: Cytotoxicity against human HT29 cells; format: functional
[13] = test system: SW480; experiment: Cytotoxicity against human SW480 cells; format: functional
[14] = test system: MCF7; experiment: Cytotoxicity against human MCF7 cells; format: functional
[15] = test system: A2780; experiment: Cytotoxicity against human A2780 cells; format: functional
[16] = test system: NCI-H460; experiment: Cytotoxicity against human H460 cells; format: functional
[17] = test system: A-431; experiment: Cytotoxicity against human A431 cells; format: functional
[18] = test system: DU-145; experiment: Cytotoxicity against human DU145 cells; format: functional
[19] = Cytotoxicity against human BE2-C cells; format: functional; conditions: BE(2)-C
[20] = Cytotoxicity against human SJ-G2 cells; format: functional
[21] = species: Homo sapiens; experiment: Inhibition of Protein phosphatase 1 at 100 uM
[22] = species: Homo sapiens; experiment: Inhibition of Protein phosphatase 2A at 100 uM

Compound: O=C(NC(=O)Nc1ccc(N2CCOCC2)cc1)NC(=O)C1C(C(=O)O)[C@@H]2CC[C@H]1O2 (stereo partly specified)
- IC50 [1]: 6.5 µM
- IC50 [2]: 7.9 µM
- inhibition at 100 µM [3]: 23%
- inhibition at 100 µM [4]: 29%
- inhibition at 100 µM [5]: 20%
- inhibition at 100 µM [6]: 18%
- inhibition at 100 µM [7]: 19%
- inhibition at 100 µM [8]: 21%
- inhibition at 100 µM [9]: 17%
- inhibition at 100 µM [10]: 13%
- inhibition at 100 µM [11]: 21%

Compound: O=C(NCCN1CCOCC1)NC(=O)C1C(C(=O)O)[C@@H]2CC[C@H]1O2 (stereo partly specified)
- IC50 [1]: 31 µM
- IC50 [2]: 43 µM
- inhibition at 100 µM [3]: 37%
- inhibition at 100 µM [4]: 14%
- inhibition at 100 µM [5]: 7.5%
- inhibition at 100 µM [6]: 14%
- inhibition at 100 µM [7]: 10%
- inhibition at 100 µM [8]: 23%
- inhibition at 100 µM [9]: 17%
- inhibition at 100 µM [10]: 26%
- inhibition at 100 µM [11]: 19%

Compound: C[C@]1(C(=O)O)[C@@H]2CC[C@@H](O2)[C@@]1(C)C(=O)NC(=O)N1CCOCC1
- IC50 [1]: 5.9 µM
- IC50 [2]: 0.79 µM
- GI50 [12]: 2.8 µM
- GI50 [13]: 3.9 µM
- GI50 [14]: 5.8 µM
- GI50 [15]: 4.9 µM
- GI50 [16]: 3.3 µM
- GI50 [17]: 2.9 µM
- GI50 [18]: 1.7 µM
- GI50 [19]: 2.5 µM
- GI50 [20]: 2.1 µM

Compound: O=C1OC(=O)[C@H]2[C@@H]1[C@@H]1CC[C@H]2O1
- IC50 [1]: 9 µM
- IC50 [2]: 3 µM
- GI50 [12]: 48 µM
- GI50 [13]: 35 µM
- GI50 [14]: 64 µM
- GI50 [15]: 59 µM
- GI50 [16]: 45 µM
- GI50 [17]: 33 µM
- GI50 [18]: 3 µM
- GI50 [19]: 56 µM
- GI50 [20]: 35 µM

Compound: O=C(NCCc1cnc[nH]1)NC(=O)C1C(C(=O)O)[C@@H]2CC[C@H]1O2 (stereo partly specified)
- inhibition [21]: 35%
- inhibition [22]: 56%
- inhibition at 100 µM [3]: 21%
- inhibition at 100 µM [4]: 33%
- inhibition at 100 µM [5]: 17%
- inhibition at 100 µM [6]: 20%
- inhibition at 100 µM [7]: 25%
- inhibition at 100 µM [8]: 32%
- inhibition at 100 µM [9]: 14%
- inhibition at 100 µM [10]: 23%
- inhibition at 100 µM [11]: 27%

Compound: C[C@@]12C(=O)OC(=O)[C@]1(C)[C@H]1CC[C@@H]2O1 [CANTHARIDIN]
- IC50 [1]: 11 µM
- IC50 [2]: 1.2 µM
- GI50 [12]: 3.3 µM
- GI50 [13]: 4.6 µM
- GI50 [14]: 7 µM
- GI50 [15]: 5.8 µM
- GI50 [16]: 4 µM
- GI50 [17]: 3.4 µM
- GI50 [18]: 2.4 µM
- GI50 [19]: 4.9 µM
- GI50 [20]: 3 µM

From ChEMBL document CHEMBL1148019, “Heterocyclic substituted cantharidin and norcantharidin analogues--synthesis, protein phosphatase (1 and 2A) inhibition, and anti-cancer activity” (Bioorg Med Chem Lett, 2007)
